In the assay the target is human LPAR1 (Homo sapiens, UniProt Q92633). Briefly: LPAR1 intracellular calcium mobilization assay (antagonist mode). A general note: Calcium assays in cells follow changes in intracellular calcium, usually with a dye or a luminescent sensor.
human LPAR1, sequence (Q92633 whole entry): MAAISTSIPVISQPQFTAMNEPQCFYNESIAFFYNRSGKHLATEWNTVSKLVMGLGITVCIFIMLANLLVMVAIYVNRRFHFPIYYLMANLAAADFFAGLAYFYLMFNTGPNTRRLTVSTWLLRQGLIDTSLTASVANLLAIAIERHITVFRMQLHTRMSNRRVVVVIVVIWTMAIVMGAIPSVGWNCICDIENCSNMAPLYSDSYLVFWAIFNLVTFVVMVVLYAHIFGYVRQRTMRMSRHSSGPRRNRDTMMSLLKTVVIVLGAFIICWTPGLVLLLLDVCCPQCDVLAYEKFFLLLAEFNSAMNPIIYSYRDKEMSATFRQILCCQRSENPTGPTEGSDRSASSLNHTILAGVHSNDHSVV

In the case of `Cc1nc(-c2nnn(C)c2NC(=O)O[C@@H](c2ccccc2F)C(F)(F)F)ccc1NS(C)(=O)=O` [Compound 97, (S)-2,2,2-trifluoro-1-(2-fluorophenyl)ethyl(1-methyl-4-(6-methyl-5-(methylsulfonamido)pyridin-2-yl)-1H-1,2,3-triazol-5-yl)carbamate], the EC50 is 0.387 µM.

On to `Cc1nc(-c2nnn(C)c2NC(=O)O[C@@H](c2ccccc2)C(F)(F)F)ccc1NS(C)(=O)=O` [Compound 94, (S)-2,2,2-trifluoro-1-phenylethyl(1-methyl-4-(6-methyl-5-(methylsulfonamido)pyridin-2-yl)-1H-1,2,3-triazol-5-yl)carbamate], for which the EC50 turned out to be 0.0386 µM.

Consider `Cc1ccncc1C(C)OC(=O)Nc1c(-c2ccc(NS(C)(=O)=O)c(C)n2)nnn1C` (stereo not shown) [Compound 82, 1-(4-methylpyridin-3-yl)ethyl (1-methyl-4-(6-methyl-5-(methylsulfonamido)pyridin-2-yl)-1H-1,2,3-triazol-5-yl)carbamate], for which the concentration giving a half-maximal response (EC50) turned out to be 2.3 µM. Next, `Cc1nc(-c2nnn(C)c2NC(=O)OC(C)c2conc2C)ccc1NS(C)(=O)=O` (stereo not shown) [Compound 136, 1-(3-methylisoxazol-4-yl)ethyl (1-methyl-4-(6-methyl-5-(methylsulfonamido)pyridin-2-yl)-1H-1,2,3-triazol-5-yl)carbamate]: 3.77 µM; `CCCCC[C@H](OC(=O)Nc1c(-c2ccc(NS(C)(=O)=O)c(C)n2)nnn1C)C(F)(F)F` [Compound 47, (S)-1,1,1-trifluoroheptan-2-yl (1-methyl-4-(6-methyl-5-(methylsulfonamido)pyridin-2-yl)-1H-1,2,3-triazol-5-yl)carbamate]: 0.132 µM. The value for `CCn1nnc(-c2ccc(NS(C)(=O)=O)c(C)n2)c1NC(=O)O[C@H](C)c1cccnc1Cl` [Compound 157, (R)-1-(2-chloropyridin-3-yl)ethyl (1-ethyl-4-(6-methyl-5-(methylsulfonamido)pyridin-2-yl)-1H-1,2,3-triazol-5-yl)carbamate] was 0.374 µM.

Regarding `COc1nc(-c2nnn(C)c2NC(=O)O[C@@H](c2ccccc2)C(F)F)ccc1NS(C)(=O)=O` [Compound 7, (S)-2,2-difluoro-1-phenylethyl (4-(6-methoxy-5-(methylsulfonamido)pyridin-2-yl)-1-methyl-1H-1,2,3-triazol-5-yl)carbamate], the EC50 is 0.112 µM. The value for `Cc1nc(-c2nnn(C)c2NC(=O)OC(C)c2cccnc2C(F)F)ccc1NS(C)(=O)=O` (stereo not shown) [Compound 124, 1-(2-(difluoromethyl)pyridin-3-yl)ethyl (1-methyl-4-(6-methyl-5-(methylsulfonamido)pyridin-2-yl)-1H-1,2,3-triazol-5-yl)carbamate] was 1.08 µM; that for `Cn1nnc(-c2ccc(NS(C)(=O)=O)c(F)n2)c1NC(=O)O[C@@H](c1ccccc1)C(F)F` [Compound 6, (S)-2,2-difluoro-1-phenylethyl (4-(6-fluoro-5-(methylsulfonamido)pyridin-2-yl)-1-methyl-1H-1,2,3-triazol-5-yl)carbamate] was 0.0713 µM; that for `C[C@@H](OC(=O)Nc1c(-c2ccc(NS(C)(=O)=O)cn2)nnn1C)c1cc(F)cnc1F` [Compound 114, (R)-1-(2,5-difluoropyridin-3-yl)ethyl (1-methyl-4-(5-(methylsulfonamido)pyridin-2-yl)-1H-1,2,3-triazol-5-yl)carbamate] was 0.0488 µM. Next, `Cc1nc(-c2nnn(C)c2NC(=O)O[C@H](C)c2cccc(F)c2)ccc1NS(=O)(=O)C1CC1` [Compound 106, (R)-1-(3-fluoro-phenyl)ethyl(4-(5-(cyclopropane-sulfonamido)-6-methylpyridin-2-yl)-1-methyl-1H-1,2,3-triazol-5-yl)carbamate]: 0.313 µM; `Cc1nc(-c2nnn(C)c2NC(=O)OC(C)c2cnc(F)cc2Cl)ccc1NS(C)(=O)=O` (stereo not shown) [Compound 129, 1-(4-chloro-6-fluoropyridin-3-yl)ethyl (1-methyl-4-(6-methyl-5-(methylsulfonamido)pyridin-2-yl)-1H-1,2,3-triazol-5-yl)carbamate]: 0.271 µM. With `Cc1nc(-c2nnn(C)c2NC(=O)O[C@H](C)c2cc(Cl)sc2Cl)ccc1NS(C)(=O)=O` [Compound 52, (R)-1-(2,5-dichlorothiophen-3-yl)ethyl (1-methyl-4-(6-methyl-5-(methylsulfonamido)pyridin-2-yl)-1H-1,2,3-triazol-5-yl)carbamate], the EC50 was 0.0167 µM. The value for `CCS(=O)(=O)Nc1ccc(-c2nnn(C)c2NC(=O)O[C@H](C)c2cccc(F)c2)nc1C` [Compound 101, (R)-1-(3-fluorophenyl) ethyl(4-(5-(ethyl-sulfonamido)-6-methyl-pyridin-2-yl)-1-methyl-1H-1,2,3-triazol-5-yl)carbamate] was 0.261 µM. For the compound `Cc1nc(-c2nnn(C)c2NC(=O)O[C@H](C)c2cc(Br)cnc2F)ccc1NS(C)(=O)=O` [Compound 125, (R)-1-(5-bromo-2-fluoropyridin-3-yl)ethyl (1-methyl-4-(6-methyl-5-(methylsulfonamido)pyridin-2-yl)-1H-1,2,3-triazol-5-yl)carbamate], the EC50 is 0.187 µM. For the compound `Cn1nnc(-c2ccc(NS(C)(=O)=O)cn2)c1NC(=O)O[C@H](CF)c1ccccc1` [Compound 18, (S)-2-fluoro-1-phenylethyl (1-methyl-4-(5-(methylsulfonamido)pyridin-2-yl)-1H-1,2,3-triazol-5-yl)carbamate], the EC50 turned out to be 0.0461 µM. `Cn1nnc(-c2ccc(NS(=O)(=O)CC#N)cn2)c1NC(=O)O[C@@H](c1ccccc1)C(F)F` [Compound 13, (S)-2,2-difluoro-1-phenylethyl(4-(5-((cyanomethyl)sulfonamido)pyridin-2-yl)-1-methyl-1H-1,2,3-triazol-5-yl)carbamate]: the concentration giving a half-maximal response (EC50) came to 0.0714 µM. The value for `C=Cc1ncccc1[C@@H](C)OC(=O)Nc1c(-c2ccc(NS(C)(=O)=O)c(C)n2)nnn1C` [Compound 127, (R)-1-(2-vinylpyridin-3-yl)ethyl (1-methyl-4-(6-methyl-5-(methylsulfonamido)pyridin-2-yl)-1H-1,2,3-triazol-5-yl)carbamate] was 1.42 µM; that for `CC(C)NS(=O)(=O)Nc1ccc(-c2nnn(C)c2NC(=O)O[C@H](C)c2cccnc2Cl)nc1` [Compound 160, (R)-1-(2-chloropyridin-3-yl)ethyl (4-(5-((N-isopropylsulfamoyl)amino)pyridin-2-yl)-1-methyl-1H-1,2,3-triazol-5-yl)carbamate] was 0.267 µM.

The EC50 is the concentration that produces a half-maximal response.

(Values after US11548871B2, “Triazole carbamate pyridyl sulfonamides as LPA receptor antagonists and uses thereof” (Gilead Sciences, Inc., priority 2019, dated 2023).)
